Experimental data: US7674823B2, “DNA-PK inhibitors” (Cancer Research Technology Limited, priority 2001, dated 2010)

What was measured:
PI 3-kinase (p110α/p85α) [1] = experiment: PI 3-kinase inhibition assay; assay type: biochemical; conditions: selectivity ratio from the IC50s for PI 3-kinase and DNA-PK
Excerpt: (§1) In order to assess the inhibitory action of the compounds against PI 3-kinase in vitro, the following assay was used to determine IC50 values.
(§2) Baculoviral recombinant GST-fused PI 3-kinase (p110α/p85α) was purified from Sf9 insect cells using GSH-sepharose affinity chromatography as described (Wymann, M. T et al., (1996) Wortmannin inactivates phosphoinositide 3-kinase by covalent modification of Lys-802, a residue involved in the phosphate transfer reaction. Mol. Cell Biol. 16:1722-1733). PI 3-kinase (1 μl) was diluted in reaction buffer (89 μl of 50 mM Hepes pH 7.5, 150 mM NaCl, 0.1 mM Sodium Orthovanadate, containing 20 μg of phosphatidylinositol) and varying concentrations of inhibitor compound added. […] Reactions were incubated for a further 20 minutes at 37° C., before quenching with the addition of 400 μl of chloroform/methanol (1:1). Reactions were acidified by the addition of 200 μl of 1M HCl, before separation of the organic and aqueous phases by centrifugation at 10,000 g for 30 seconds. The organic phase was transferred to a fresh tube and washed twice with 150 μl of 1M hydrochloric acid/methanol (1:1), discarding the aqueous phase. The washed reaction product was then placed in a white 96-well plate with 100 μl of scintillation fluid and transferred to a TopCount NXT for scintillation counting. Counts per minute, following a one minute counting time, were recorded for each reaction. The inhibition of PI 3-kinase activity by compounds was calculated as described above for the DNA-PK assay.
(§3) The selectivity was determined by the following equation: […]

PI 3-kinase (p110α/p85α) [2] = molecular target: T1, PI 3-kinase (p110α/p85α) (UniProt P32871); experiment: PI 3-kinase inhibition assay; assay type: biochemical; conditions: GST-fused p110α/p85α
T1 construct: other: GST-fused p110α/p85α
Excerpt: as §1, §2, §3

| Structure (SMILES) | Δ(DNA-PK/PI 3-K) (PI 3-kinase (p110α/p85α) [1]) | IC50 (PI 3-kinase (p110α/p85α) [2]) |
| --- | --- | --- |
| O=c1cc(N2CCOCC2)oc2c3c(ccc12)CCCC3 [Compound 297, 7,8,9,10-tetrahydro-benzo[h]-2-(morpholin-4-yl)-chromen-4-one] | 36 | 18 µM |
| CC1CN(c2cc(=O)c3ccc4ccccc4c3o2)CCO1 (stereo not drawn) [Compound 317, 2-(2-Methyl-morpholin-4-yl)-benzo[h]chromen-4-one] | 8 | 2.5 µM |
| O=C1c2ccccc2C(=O)N1CCCOc1ccc2c(=O)cc(N3CCOCC3)oc2c1 [Compound 422, N-[3-(2-(Morpholin-4-yl)-4-oxo-4H-chromen-7-yloxy)-propyl]-phthalimide] | 12 | 6 µM |
